Consider 27 compounds from patent US20230339900A1, “CASEIN KINASE 1 DELTA MODULATORS” (Janssen Pharmaceutica NV, priority 2020, published 2023).

The target in assay [1] is human CSNK1D tagged with nanoluciferase (Homo sapiens (Human), UniProt P48730). In words: Whole Cell nBRET CSNK1D Binding Assay. To be noted: living CHO cells stably expressing human CSNK1D-nanoluciferase; NanoBret tracer 130 nM; 2 hours 37° C.; read-out: CSNK1D BRET IC50. On the procedure: This cellular binding assay uses a bioluminescence resonance energy transfer to measure human CSNK1D binding activity in living Chinese Hamster Ovary (CHO) cells that are stably expressing human CSNK1D tagged with nanoluciferase. The cells were grown to confluency in growth media (DMEM:F12, 50 u/mLPen/Strep, […] glutamine, and 0.6 mg/mL G418) in 10 cm^2 dishes. Cells were seeded onto white, opaque 384-well plates (Corning, cat #3704) at a density of 8,000 cells/well in serum-free OptiMEM and left to incubated overnight at 37° C., […]. The next day, test compounds were added in a dose response to the plate followed by a NanoBret tracer (130 nM). The plate is mixed on an orbital shaker for 30 seconds, then placed in a 37° C. incubator for 2 hours. NanoBret Nano-Glo Substrate solution (20 μL) is added to all wells and incubated for 3 minutes at room temperature. Donor (450 nm) and acceptor (630 nm) emissions are then measured within 10 minutes using a ClarioStar plate reader. The data is used to calculate millibret units, defined as (E630/E450)*1000. Bret emissions are then graphed against the log of compound concentrations and these graphs are used to determine the IC50 of each compound.
A general note: Bioluminescence resonance energy transfer reports proximity on the nanometre scale.

Assay [2] deals with human recombinant GST cleaved CSNK1D (Homo sapiens (Human), UniProt P48730). In words: Purified enzyme assay (ADP-Glo Kinase Assay). The format is biochemical. To be noted: 2 nM CSNK1D, peptide substrate 150 μM, ATP 20 μM, 45 minutes room temperature. The method, then: In this assay, CSNK1D phosphorylates a substrate peptide PLSRTL-pS-VASLPGL in the presence of ATP. […] This assay monitors CSNK1D kinase activity by measuring the amount of ADP produced in the assay. A substrate mix is prepared by diluting peptide substrate (final concentration 150 μM) with ATP (final concentration 20 μM) in assay buffer (50 mM Tris/HCl pH 7.4+10 mM MgCl2+1 mM DTT+0.1% BSA). The substrate mix is added to each well of a low volume, 384-well, white opaque plate. Test compounds were diluted in HBSS and added in a dose-response to the plate. To start the reaction, 2 nM of constitutively active human recombinant GST cleaved CSNK1D (University of Dundee, clone DU 19064, stored at 0.28 mg/mL in 50 mM Tris/HCl pH 7.5, 150 mM NaCl, 270 mM Sucrose, 0.1 mM EGTA, 0.1% 2-mercaptoethanol, 0.02% Brij-35.1 mM benzamidine, 0.2 mM PMSF) was added to each well and the plate centrifuged for 5 minutes at 1500 rpm. The total volume of each reaction is 5 ul (2 μL of substrate mix, 1 μL of diluted compounds, and 2 μL of human recombinant CSNK1D). The plates are incubated for 45 minutes at room temperature.
ADP was quantified using the ADP-Glo™ Kinase Assay. ADP-Glo Reagent (5 μL) was added to each well. After a 1 hour incubation at room temperature, Kinase Detection Reagent (10 μL) was added to each well and incubated for 30 minutes. Luminescence was measured on the Perkin Elmer Wallac EnVision 2104 Multi-label Reader. The raw data from the Envision is used to calculate percent activity.
(In general: In ADP-Glo the light output rises with the ADP produced.)

The structures appear in SMILES notation. Where only a bound is given, the exact number is not on record here.

human CSNK1D tagged with nanoluciferase, sequence (P48730 whole entry): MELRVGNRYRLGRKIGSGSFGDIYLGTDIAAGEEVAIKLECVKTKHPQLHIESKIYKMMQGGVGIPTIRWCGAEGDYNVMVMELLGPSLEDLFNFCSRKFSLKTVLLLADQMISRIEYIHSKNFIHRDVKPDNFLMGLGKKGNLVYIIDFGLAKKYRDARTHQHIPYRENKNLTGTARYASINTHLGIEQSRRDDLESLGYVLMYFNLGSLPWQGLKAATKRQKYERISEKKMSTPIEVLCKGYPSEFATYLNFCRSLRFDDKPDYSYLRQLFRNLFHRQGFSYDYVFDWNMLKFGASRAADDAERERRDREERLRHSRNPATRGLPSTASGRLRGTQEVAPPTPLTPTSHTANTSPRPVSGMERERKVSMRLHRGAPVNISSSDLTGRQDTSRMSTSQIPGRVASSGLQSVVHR
human recombinant GST cleaved CSNK1D, sequence (P48730 whole entry): as above

As for `COc1ccc2nccc(-c3cn(C)nc3-c3ccc(F)cn3)c2c1` [Example 129, 4-[3-(5-Fluoro-2-pyridyl)-1-methyl-pyrazol-4-yl]-6-methoxy-quinoline], the IC50 (in general, the concentration at which inhibition is half-maximal) in assay [1] was determined as 0.785 µM. Also, the AC50 (in general, the midpoint of the concentration-response curve, whichever way the signal moves) in assay [2] stood at 0.109 µM.
The like results for `Cn1cc(-c2ccnc3[nH]cc(CC4CCOC4)c23)c(-c2ccc(F)cn2)n1` (racemic) [Example 97, (R/S)-4-[3-(5-Fluoro-2-pyridyl)-1-methyl-pyrazol-4-yl]-3-(tetrahydrofuran-3-ylmethyl)-1H-pyrrolo[2,3-b]pyridine] were, in that order, greater than 10 µM and 0.384 µM.
With `CC(C)n1cc(-c2ccnc3[nH]ncc23)c(-c2ccc(F)cn2)n1` [Example 59, 4-(3-(5-Fluoropyridin-2-yl)-1-isopropyl-1H-pyrazol-4-yl)-1H-pyrazolo[3,4-b]pyridine], the IC50 in assay [1] turned out to be 0.326 µM. The AC50 in assay [2] was 0.044 µM.
For `COc1ccc2ncc(F)c(-c3cn(C)nc3-c3ccc(F)cn3)c2n1` [Example 156, 7-Fluoro-8-[3-(5-fluoro-2-pyridyl)-1-methyl-pyrazol-4-yl]-2-methoxy-1,5-naphthyridine] the same measures were 0.803 µM and 0.052 µM.
Turning to `Cc1cc(-c2nn(C)cc2-c2cc(C)nc3[nH]ncc23)ccn1` [Example 135, 6-Methyl-4-[1-methyl-3-(2-methyl-4-pyridyl)pyrazol-4-yl]-1H-pyrazolo[3,4-b]pyridine], in assay [1], the IC50 was 7.12 µM. For the same compound, the AC50 in assay [2] is 0.168 µM.
As to `Cn1cc(-c2ccnc3[nH]cc(F)c23)c(-c2ccc(F)cn2)n1` [Example 77, 3-Fluoro-4-[3-(5-fluoro-2-pyridyl)-1-methyl-pyrazol-4-yl]-1H-pyrrolo[2,3-b]pyridine], the IC50 in assay [1] amounted to 0.053 µM. In addition, the half-maximal activity concentration (AC50) in assay [2] was 0.007 µM.
The like results for `Cc1cc(-c2cn(CC3COC3)nc2-c2ccc(F)cn2)c2cn[nH]c2n1` [Example 50, 4-[3-(5-Fluoro-2-pyridyl)-1-(oxetan-3-ylmethyl)pyrazol-4-yl]-6-methyl-1H-pyrazolo[3,4-b]pyridine] were, in that order, 0.122 µM and 0.005 µM.
For `Cn1cc(-c2c(CC3COC3)cnc3[nH]ccc23)c(-c2ccc(F)cn2)n1` [Example 95, 4-(3-(5-Fluoropyridin-2-yl)-1-methyl-1H-pyrazol-4-yl)-5-(oxetan-3-ylmethyl)-1H-pyrrolo[2,3-b]pyridine] the same measures were 0.376 µM and 0.002 µM.
The like results for `Cc1cc(-c2cn(C)nc2-c2ncco2)c2cn[nH]c2n1` [Example 8, 2-(1-Methyl-4-(6-methyl-1H-pyrazolo[3,4-b]pyridin-4-yl)-1H-pyrazol-3-yl)oxazole] were, in that order, greater than 10 µM and 0.783 µM.
Turning to `Cn1cc(-c2c(C#N)cnc3[nH]ccc23)c(-c2ccc(F)cn2)n1` [Example 89, 4-[3-(5-Fluoro-2-pyridyl)-1-methyl-pyrazol-4-yl]-1H-pyrrolo[2,3-b]pyridine-5-carbonitrile], the IC50 in assay [1] was 0.071 µM. The AC50 in assay [2] turned out to be 0.003 µM.
For `Fc1ccc(-c2nn(C(F)F)cc2-c2ccnc3[nH]ccc23)nc1` [Example 65, 4-[1-(Difluoromethyl)-3-(5-fluoro-2-pyridyl)pyrazol-4-yl]-1H-pyrrolo[2,3-b]pyridine] the same measures were 0.171 µM and 0.021 µM.
For `CC(C)Cn1cc(-c2ccnc3[nH]ccc23)c(-c2ccc(F)cn2)n1` [Example 61, 4-[3-(5-Fluoro-2-pyridyl)-1-isobutyl-pyrazol-4-yl]-1H-pyrrolo[2,3-b]pyridine] the same measures were 0.115 µM and 0.014 µM.
The like results for `Cn1cc(-c2ccnc3ccc(C#N)cc23)c(-c2ccc(F)cn2)n1` [Example 150, 4-[3-(5-Fluoro-2-pyridyl)-1-methyl-pyrazol-4-yl]quinoline-6-carbonitrile] were, in that order, 1.82 µM and 0.113 µM.
Consider `Cn1cc(-c2ccnc(NC(=O)C3CC3)c2)c(-c2ccc(F)cn2)n1` [Example 116, N-(4-(3-(5-Fluoropyridin-2-yl)-1-methyl-1H-pyrazol-4-yl)pyridin-2-yl)cyclopropanecarboxamide], for which the IC50 in assay [1] came to 0.076 µM. Besides, the AC50 in assay [2] is 0.003 µM.
As to `COc1nc(-c2nn(C)cc2-c2cc(C)nc3[nH]ncc23)ccc1F` [Example 41, 4-(3-(5-Fluoro-6-methoxypyridin-2-yl)-1-methyl-1H-pyrazol-4-yl)-6-methyl-1H-pyrazolo[3,4-b]pyridine], the IC50 in assay [1] was 5 µM. The AC50 in assay [2] worked out at 0.107 µM.
The like results for `Cc1cc(-c2cn(C)nc2-c2ccncc2C)c2cn[nH]c2n1` [Example 136, 6-Methyl-4-[1-methyl-3-(3-methyl-4-pyridyl)pyrazol-4-yl]-1H-pyrazolo[3,4-b]pyridine] were, in that order, greater than 10 µM and 1.04 µM.
The like results for `COc1cc2c(-c3cn(C)nc3-c3ccc(F)cn3)ccnc2cc1F` [Example 111, 7-Fluoro-4-[3-(5-fluoro-2-pyridyl)-1-methyl-pyrazol-4-yl]-6-methoxy-quinoline] were, in that order, 0.491 µM and 0.028 µM.
The like results for `Cc1ccc(-c2nn(C)cc2-c2ccnc3[nH]ncc23)nc1` [Example 32, 4-(1-Methyl-3-(5-methylpyridin-2-yl)-1H-pyrazol-4-yl)-1H-pyrazolo[3,4-b]pyridine] were, in that order, 8.94 µM and 0.128 µM.
Turning to `Cc1ccc2nccc(-c3cn(C)nc3-c3ccc(F)cn3)c2n1` [Example 131, 8-[3-(5-Fluoro-2-pyridyl)-1-methyl-pyrazol-4-yl]-2-methyl-1,5-naphthyridine], the IC50 in assay [1] was determined as 4.48 µM. In assay [2], the AC50 worked out at 0.31 µM.
In the case of `Cn1cc(-c2ccnc3[nH]ccc23)c(-c2ncco2)n1` [Example 7, 2-(1-Methyl-4-(1H-pyrrolo[2,3-b]pyridin-4-yl)-1H-pyrazol-3-yl)oxazole], the IC50 in assay [1] was determined as 0.128 µM. In assay [2], the AC50 is 0.038 µM.
For `Cn1cc(-c2ccnc3[nH]ccc23)c(-c2ccsn2)n1` [Example 15, 3-(1-Methyl-4-(1H-pyrrolo[2,3-b]pyridin-4-yl)-1H-pyrazol-3-yl)isothiazole] the same measures were 0.181 µM and 0.007 µM.
Turning to `CC(C)Cn1cc(-c2ccnc3[nH]ncc23)c(-c2ccc(F)cn2)n1` [Example 62, 4-(3-(5-Fluoropyridin-2-yl)-1-isobutyl-1H-pyrazol-4-yl)-1H-pyrazolo[3,4-b]pyridine], the half-maximal inhibitory concentration (IC50) in assay [1] was 0.477 µM. Moreover, the AC50 in assay [2] came out at 0.008 µM.
Consider `CCn1cc(-c2ccnc3[nH]ncc23)c(-c2ccc(F)cn2)n1` [Example 56, 4-(1-Ethyl-3-(5-fluoropyridin-2-yl)-1H-pyrazol-4-yl)-1H-pyrazolo[3,4-b]pyridine], for which the IC50 in assay [1] turned out to be 0.205 µM. Moreover, in assay [2], the concentration at half-maximal activity (AC50) was found to be 0.005 µM.
For `Cn1cc(-c2ccnc3c2CC(=O)N3)c(-c2ccc(F)cn2)n1` [Example 3, 4-(3-(5-Fluoropyridin-2-yl)-1-methyl-1H-pyrazol-4-yl)-1,3-dihydro-2H-pyrrolo[2,3-b]pyridin-2-one] the same measures were 1.5 µM and 0.058 µM.
For `Cn1cc(-c2ccnc3cn[nH]c23)c(-c2ccc(F)cn2)n1` [Example 5, 7-(3-(5-Fluoropyridin-2-yl)-1-methyl-1H-pyrazol-4-yl)-1H-pyrazolo[4,3-b]pyridine] the same measures were 0.46 µM and 0.015 µM.
The like results for `Cc1cc(-c2cn(C(C)C)nc2-c2ccc(F)cn2)c2cn[nH]c2n1` [Example 60, 4-(3-(5-Fluoropyridin-2-yl)-1-isopropyl-1H-pyrazol-4-yl)-6-methyl-1H-pyrazolo[3,4-b]pyridine] were, in that order, 0.372 µM and 0.011 µM.
`Cn1cc(-c2ccnc3[nH]ccc23)c(-c2cncc(F)c2)n1` [Example 21, 4-[3-(5-Fluoro-3-pyridyl)-1-methyl-pyrazol-4-yl]-1H-pyrrolo[2,3-b]pyridine]: the IC50 in assay [1] was 0.356 µM. Moreover, in assay [2], the AC50 turned out to be 0.014 µM.
